Results as given in patent publication US7432056B2, “Biallelic markers derived from genomic regions carrying genes involved in arachidonic acid metabolism” (Serono Genetics Institute S.A., priority 1999, dated 2008).

Test: Hepatotoxicity monitored by serum alanine aminotransferase (ALT) level in a clinical study of zileuton
Format: in vivo, human
From the text: In another preferred embodiment, the trait considered was a side effect upon drug treatment; the study involved two populations derived from a clinical study of the anti-asthmatic drug zileuton. The case population was composed of asthmatic individuals treated with Zileuton showing zileuton-associated hepatotoxicity monitored by the serum level of alanine aminotransferase (ALT) and the control population was composed of asthmatic individuals treated with zileuton and having no increased serum level of ALT. Inclusion criteria and association between the biallelic markers of the present invention and zileuton-associated hepatotoxicity are further described below in IV.E. Association of Biallelic Markers of the Invention with Hepatoxicity to Anti-Asthma Drug Zileuton and in Example 5, Association between Side Effects upon Treatment with the Anti-Asthmatic Drug Zileuton (Zyflo™) and the Biallelic Markers of the 12-lipoxygenase Gene.
Zileuton (Zyflo™) is an active inhibitor of 5-lipoxygenase, the enzyme that catalyzes the formation of leukotrienes from arachidonic acid, indicated for prophylaxis and chronic treatment of asthma. […] The ALT test (serum level of alanine aminotransferase) was used, which is considered the most sensitive indicator of liver injury.
The side effect examined in this study was the hepatotoxicity experienced by asthmatic individuals as a result of their treatment with Zileuton as part of a clinical study. […] Hepatotoxicity was monitored by measuring the serum levels of alanine aminotransferase (ALT), which is a sensitive indicator of liver cell damage.
As mentioned above, an association study is more informative if the case-control populations present extreme phenotypes. Therefore, the asthmatic individuals, which were selected for the side effect positive trait (ALT+), corresponded to 89 individuals that presented at least 3 times the upper limit of normal (ULN) level of ALT. On the other side, the asthmatic individuals that were selected for the side effect negative trait (ALT−) corresponded to 208 individuals that presented less than 1×ULN of ALT. ALT+ and ALT− populations corresponded to 4% and 35% respectively of the total asthmatic individuals that participated in this study.

Question: What does the source list for `CC(c1cc2ccccc2s1)N(O)C(N)=O` (stereo not shown) [Zileuton]?
Answer: asthmatic individuals that did not experience Zileuton-associated ALT increase compared to ALT levels prior to zileuton intake (asthmatic individuals treated with zileuton in a clinical study, serum ALT): More than 90%; ALT+ population (at least 3 times the upper limit of normal level of ALT) as share of total asthmatic individuals in the study (asthmatic individuals treated with zileuton, 89 individuals): 4%; ALT- population (less than 1xULN of ALT) as share of total asthmatic individuals in the study (asthmatic individuals treated with zileuton, 208 individuals): 35%; liver function abnormalities in zileuton-treated patients (elevations of liver function tests during treatment, ALT test): A minority of zileuton-treated patients develop liver function abnormalities
